Experimental data: article PMC10065799, “High-throughput profiling of sequence recognition by tyrosine kinases and SH2 domains using bacterial peptide display” (eLife, 2023)

What was measured:
Test in all cases: pTyr-Var library bacterial peptide display kinase screen (enrichment scores)
c-Abl kinase domain = biological target: T1, c-Abl kinase domain (Mus musculus, UniProt P00520); type: biochemical;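 note: log2 fold change in enrichment of variant over reference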
T1 sequence (P00520 242-493 limits assumed): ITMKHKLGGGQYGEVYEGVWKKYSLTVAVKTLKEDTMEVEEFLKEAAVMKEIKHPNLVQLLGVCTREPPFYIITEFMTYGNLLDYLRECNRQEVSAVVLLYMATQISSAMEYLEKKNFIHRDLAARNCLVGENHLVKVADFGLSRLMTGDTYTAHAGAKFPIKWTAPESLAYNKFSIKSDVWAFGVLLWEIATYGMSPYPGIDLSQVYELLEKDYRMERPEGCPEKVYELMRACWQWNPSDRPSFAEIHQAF

Fer kinase domain = type: biochemical, mouse; settings: sheet "Fer"
c-Src kinase domain = c-Src kinase domain (Homo sapiens, UniProt P12931); type: biochemical; settings: sheet "Src";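 note: log2 fold change in enrichment of variant over reference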
EPHB2 kinase domain = type: biochemical, human; settings: sheet EPHB2
EPHB1 kinase domain = type: biochemical, human; settings: for Screen: sheet EPHB1, effect of the variant peptide relative to its reference peptide in the pTyr-Var library screen (enrichment scores); for Screen (variant relative to reference peptide, measured in the pTyr-Var library screen): sheet "EPHB1", variant seq vs reference seq, bacterial peptide display enrichment
[1] = fig5-data2, sheet "Abl", Screen for the variant/reference peptide pair, pTyr-Var library
[2] = value of the variant peptide against its reference peptide in the pTyr-Var library screen with Fer
[3] = variant peptide versus its reference peptide in the pTyr-Var library screen
[4] = sheet "Abl", effect of variant peptide relative to its reference peptide in pTyr-Var library screen (enrichment)
[5] = effect of the variant peptide relative to its reference peptide in the pTyr-Var library screen
[6] = effect of variant peptide relative to its reference peptide in the pTyr-Var library screen (enrichment scores)
[7] = variant peptide relative to its reference peptide, pTyr-Var library screen enrichment
[8] = effect of the variant relative to its reference peptide in the pTyr-Var library screen

AALLNYKAGRD [GRIN2A_Y737_V734L]
Screen (c-Abl kinase domain; [1]): -0.3155

ACEVLYNIVFM [NCF2_Y125_A128V]
Screen (Fer kinase domain; [2]): 0.5953
Screen (c-Src kinase domain; [3]): 0.004351

ADDSFYTVRSA [ZAP70_Y493_A495V_YF]
Screen (c-Abl kinase domain; [4]): -3.301
Screen (c-Src kinase domain; [3]): 1.093

AEDKPYAELWT [MPI_Y46_M51T]
Screen (Fer kinase domain; [2]): -0.5845
Screen (c-Src kinase domain; [5]): -0.4439

AHARMYGVLPW [PLP1_Y207_D203H]
Screen (EPHB2 kinase domain; [6]): -2.408
Screen (c-Src kinase domain; [3]): -1.491

AKKMKYFEGVS [PRKDC_Y682_I680M]
Screen (c-Abl kinase domain; [1]): 0.9485

ANAFIYDVQLP [L1CAM_Y420_V421D_YF]
Screen (c-Src kinase domain; [5]): 2.894
Screen (EPHB1 kinase domain): 1.352

CEAIEYLESKQ [BTK_Y511_M509I]
Screen (c-Abl kinase domain; [1]): 1.454

CENCHYPILPL [LCK_Y25_V28L]
Screen (c-Abl kinase domain; [1]): 0.2762

CKSIHYDLVFL [COL22A1_Y37_V35I]
Screen (Fer kinase domain; [2]): -0.07246

DFFDLYGGKKF [PTPN11_Y66_E69K_YF]
Screen (c-Src kinase domain; [3]): 0.3147

DGQFVYKLTDF [TBK1_Y153_S151F]
Screen (c-Src kinase domain; [3]): -0.3973

DRLTVYIDRVR [LMNA_Y45_A43T]
Screen (c-Abl kinase domain; [1]): -0.2946

DRQASYLDKVR [KRT17_Y98_L95Q]
Screen (c-Abl kinase domain; [1]): 2.325

EAAFVYVISSA [WNT4_Y113_A114V]
Screen (c-Abl kinase domain; [4]): 1.673
Screen (c-Src kinase domain; [3]): -2.147

EACPSYSHVVL [CHST6_Y168_R166P]
Screen (Fer kinase domain; [2]): 2.885

EGTATYAAAIL [JUP_Y644_V648I]
Screen (Fer kinase domain; [2]): 0.5368
Screen (EPHB2 kinase domain; [6]): 0.4332

FDNPIYQKTTE [LDLR_Y828_V827I]
Screen (Fer kinase domain; [2]): 1.939
Screen (c-Abl kinase domain; [1]): 2.749

FEKFLYFLPAS [DYNC2H1_Y346_H341Y_YF]
Screen (EPHB1 kinase domain): -0.7762

FFLGAYDRFLP [SLC22A5_Y486_V481F_YF]
Screen (c-Abl kinase domain; [4]): -0.3891
Screen (EPHB2 kinase domain; [6]): -0.4331
Screen (c-Src kinase domain; [3]): -0.1466

FGCGMYSHLQG [LGR4_Y848_D844G_YF]
Screen (Fer kinase domain; [2]): -1.105
Screen (c-Src kinase domain; [5]): -0.3661

FIIFIYAMKKK [SLCO1B1_Y645_L643F_YF]
Screen (c-Src kinase domain; [3]): 2.408

FISLIYTNFEV [GSTP1_Y109_A114V_YF]
Screen (Fer kinase domain; [2]): 1.457
Screen (c-Abl kinase domain; [1]): 1.388
Screen (c-Src kinase domain; [5]): 0.2277

FKGIVYSVSSD [DCX_Y70_A71S]
Screen (c-Abl kinase domain; [1]): -0.3809

FLAVGYHMPHI [IDS_Y225_K227M]
Screen (c-Abl kinase domain; [1]): -0.568

FLENFYDLEKD [MMP3_Y42_K45E_YF]
Screen (c-Src kinase domain; [5]): 0.2474

FSGQVYRQRRK [TH_Y230_D227G]
Screen (c-Abl kinase domain; [4]): 0.751

FSTPPYLLEAA [BRIP1_Y921_S919P_YF]
Screen (c-Src kinase domain; [5]): -1.274

GADAIYDHVNE [UQCR10_Y44_I47V]
Screen (Fer kinase domain; [7]): 0.2964
Screen (EPHB2 kinase domain; [8]): 0.825
Screen (c-Src kinase domain; [3]): -0.3881

GEEIKYMLWLL [OTC_Y55_S60L]
Screen (Fer kinase domain; [2]): 1.219

GESKDYALHAG [SVIL_Y185_V189A]
Screen (variant relative to reference peptide, measured in the pTyr-Var library screen) (EPHB1 kinase domain): -2.109

GESLTYVSTTF [C1orf162_Y120_A121V]
Screen (c-Src kinase domain; [5]): -2.006

GGSDCYGSLRP [MYLK_Y846_R845C]
Screen (c-Src kinase domain; [3]): 2.609

GMKIVYVFVKK [DNAI2_Y5_E2K_YF]
Screen (c-Abl kinase domain; [1]): 1.393

GQDLLYEDEDL [PACS1_Y303_F302L]
Screen (Fer kinase domain; [2]): 0.4548

HFPDVYAWEQL [ALX3_Y181_R183W_YF]
Screen (Fer kinase domain; [2]): 4.265
Screen (c-Src kinase domain; [5]): 2.591

HNQDDYSFPSR [LDLR_Y845_G844D_YF]
Screen (EPHB2 kinase domain; [6]): 1.141

HVKHNYECLVF [XRCC5_Y416_I412V_YF]
Screen (variant relative to reference peptide, measured in the pTyr-Var library screen) (EPHB1 kinase domain): -0.4743

IGMLIYFARKA [VCAM1_Y718_I716L]
Screen (EPHB2 kinase domain; [8]): -1.317

IVRSLYEDVED [VHL_Y185_L188V]
Screen (Fer kinase domain; [7]): 0.543
Screen (c-Abl kinase domain; [4]): 2.296

KAWTIYHPEDS [ZBP1_Y165_R166H]
Screen (c-Abl kinase domain; [4]): 3.304

KKFPDYIQSAM [SGMS2_Y59_I62S_YF]
Screen (variant relative to reference peptide, measured in the pTyr-Var library screen) (EPHB1 kinase domain): -3.574

KLSHLYQDHMQ [WNT5A_Y86_C83S]
Screen (c-Abl kinase domain; [4]): -1.969

KNKELYSDPFD [PDE10A_Y300_L303P]
Screen (Fer kinase domain; [2]): -1.007

LADKPYTFEFF [FXN_Y118_D122Y_YF]
Screen (Fer kinase domain; [2]): -0.3661
Screen (EPHB2 kinase domain; [6]): -0.8967
Screen (c-Src kinase domain; [5]): -0.4395

LDFPEYNGVDR [CASQ1_Y43_D44N]
Screen (c-Src kinase domain; [5]): 0.514

LERFIYNRQEF [HLA-DPB1_Y59_E62Q_YF]
Screen (c-Src kinase domain; [5]): -1.248

LESILYESSVV [TRPV4_Y91_T89I]
Screen (Fer kinase domain; [7]): -0.3592
Screen (c-Src kinase domain; [3]): -0.6958

LFLALYTGLVR [PIGB_Y402_H407R]
Screen (c-Src kinase domain; [3]): -0.3512

LGKLTYPVGFW [NTHL1_Y177_I176T]
Screen (EPHB2 kinase domain; [6]): 0.6291

LIGRGYDDPEV [HSPA9_Y128_R127G]
Screen (EPHB2 kinase domain; [6]): -1.099
